Results from publication PMC5554537 (Frontiers in Pharmacology, 2017).

Columns and labels:
[1] = Stability in mouse liver homogenates (QC samples); format: physicochemical
Excerpt: (§1) using octa-deuterated internal standards of SN30000, M13 and M14 synthesised as previously reported (Wang et al., 2012). Intra- and inter-day precision (expressed as relative standard deviation (RSD) and accuracy (expressed as percentage of the nominal value) were deter mined by analy sis of replicates (n=6) of low and high quality control (QC) samples on three different days. The lower limit of quantitation (LLOQ) was defined as the lowest concentration providing RSD and accuracy < 20%. Recovery from plasma and liver ho mogenates was tested at the three QC levels. The recoveries were evaluated by comparing extracted samples with blank extracted solutions spiked with analytes of the same amount.
(§2) Matrix effects, defined as the change in response due to the presence of other substances in the samples, were evaluated by comparing the analytes diluted into the blank plasma or liver extracted solution with that of the same stock solutions diluted in water. Three different concentration levels (low, medium and high QC) were evaluated by analysing three samples at each level. Accuracy , precision, recovery and matrix effects were all acceptable over the concentration ranges evaluated for plas ma (Supplementary Table 1) and for liver homogenates (Supplementary Table 2).
(§3) Stability of the analytes in mouse plasma (Supplementary Table 3) or liver homogenate (Supplementary Table 4) was confirmed during holding of QC samples on ice for up to 2 h under nor mal laboratory lighting, although there was a trend towards loss of SN30000 in plasma samples held in clear microcentrifuge tubes which may reflect the known photosensitivity of the compound (Gu et al., 2014). This loss was reduced by use of red microcentrifuge tubes, and eliminated by black tubes. Stability in both matrices was also confir med for one month storage at -80°C and for three freeze-thaw cycles, while MeOH-deproteinised samples w ere stable for 12 h at 4°C in the autosampler (Supplementary Tables

[2] = Compartmental plasma PK model; format: in vivo; set-up: Absorption rate constant Ka: unit not given here
Excerpt: This model, shown schematically in Figure 9, is based on total (free + bound) plasma concentrations; the major metabolites (M14, M13, and M18) are explicit and clearance of SN30000 occurs only by reduction to M14. The i.p. bioavailability of SN30000 was modeled with an additional term for loss from the peritoneal compartment (kloss).

in vivo = conditions: NIH-III, mouse, in vivo, ip
Protocol: SN30000, M14 and M18 dosing solutions were prepared fresh in normal saline, filtered through 0.45 μm Acrodisc filters (Pall Life Sciences, Port Washington, NY, United States), protected from light in amber vials, and used within 3 h. Doses are expressed as mg of free base equivalent for SN30000 and M14, and free acid in the case of M18. […] For evaluation of acute toxicity, mice were observed continuously for 3 h after dosing, and their activity rated on a lethargy score from 0 representing no change in activity to 5 representing animals that were moribund and required culling. For MTD studies, the animals were checked daily for clinical signs of toxicity and body weight change for 2 weeks. In some studies rectal temperature changes after dosing were measured using a BAT-12 digital microprobe thermometer (Physitemp Instruments, Clifton, NJ, United States) at the times specified in the figures. Blood samples were collected from mice at various times by cardiac puncture, seconds after cervical dislocation, into ice-cold tubes containing K2EDTA. These were placed on ice immediately after collection and centrifuged (3,000 g, 3 min) within 10 min to harvest plasma. Plasma and tissues were rapidly frozen in liquid nitrogen before storage at -80°C for subsequent bioanalysis.
Concentration-time data were analyzed by non-compartmental analysis using Phoenix WinNonlin (ver 6.4, Build 6.4.0768 Pharsight, United States); all AUC values were extrapolated to infinity using the linear trapezoidal rule. A compartmental model for plasma PK after dosing with SN30000 or M14 was fitted using Phoenix NLME v1.3 with random effects on the metabolite volumes of distribution, and temperature effects based on the observed body temperature at the last measurement time. Temperature effects were added or removed until there was no significant change in the log likelihood. Model fits were further assessed by visual inspection of the residuals and predicted PK.

[3] = Stability in mouse plasma (QC samples); format: physicochemical
Excerpt: as §1, §2, §3

NIH-III mice = test: Core body (rectal) temperature and acute clinical signs after dosing; format: in vivo; conditions: i.p. SN30000 186 mg/kg, TPZ 31.7 mg/kg, M14 135 mg/kg
Protocol: Supplementary Figure 3. Initial rates of core temperature decrease in (untreated) NIH-III mice post- mortem: co mparison with initial temperature change ante- mortem following treatment with benzotriazine oxides at their MTD. Temperature was measured in rectu m and liver over 15 min. Initial rates of temperature loss (°C/min) were: post- mortem (rectum):
(rectum) 0.33. The rectal temperature loss following dosing with M14 (135 mg/kg) was 0.6 °C/min (not shown for clarity). The drug-induced changes are redrawn from Fig. 4.

[4] = liver homogenate deproteinised in 3 vol MeOH, 12 h autosampler at 4°C, nominal SN30000 0.5, M14 0.25, M13 0.1 µM
[5] = liver homogenate deproteinised in 3 vol MeOH, 12 h autosampler at 4°C, nominal SN30000 5, M14 2.5, M13 1 µM
[6] = liver homogenate deproteinised in 3 vol MeOH, 12 h autosampler at 4°C, nominal SN30000 50, M14 25, M13 10 µM
[7] = liver homogenate, 1 month at -80°C, nominal SN30000 0.5, M14 0.25, M13 0.1 µM
[8] = liver homogenate, 1 month at -80°C, nominal SN30000 5, M14 2.5, M13 1 µM
[9] = liver homogenate, 1 month at -80°C, nominal SN30000 50, M14 25, M13 10 µM
[10] = liver homogenate, 1h on ice, clear tubes, nominal SN30000 0.5, M14 0.25, M13 0.1 µM
[11] = liver homogenate, 1h on ice, clear tubes, nominal SN30000 5, M14 2.5, M13 1 µM
[12] = liver homogenate, 1h on ice, clear tubes, nominal SN30000 50, M14 25, M13 10 µM
[13] = liver homogenate, 2h on ice, nominal SN30000 0.5, M14 0.25, M13 0.1 µM
[14] = liver homogenate, 2h on ice, nominal SN30000 5, M14 2.5, M13 1 µM
[15] = liver homogenate, 2h on ice, nominal SN30000 50, M14 25, M13 10 µM
[16] = liver homogenate, three freeze-thaw cycles, nominal SN30000 0.5, M14 0.25, M13 0.1 µM
[17] = liver homogenate, three freeze-thaw cycles, nominal SN30000 5, M14 2.5, M13 1 µM
[18] = liver homogenate, three freeze-thaw cycles, nominal SN30000 50, M14 25, M13 10 µM
[19] = plasma deproteinised in 3 vol MeOH, 12 h autosampler at 4°C, nominal SN30000 0.5, M14 0.25, M13 0.1 µM
[20] = plasma deproteinised in 3 vol MeOH, 12 h autosampler at 4°C, nominal SN30000 5, M14 2.5, M13 1 µM
[21] = plasma deproteinised in 3 vol MeOH, 12 h autosampler at 4°C, nominal SN30000 50, M14 25, M13 10 µM
[22] = plasma, 1 month at -80°C, nominal SN30000 0.5, M14 0.25, M13 0.1 µM
[23] = plasma, 1 month at -80°C, nominal SN30000 5, M14 2.5, M13 1 µM
[24] = plasma, 1 month at -80°C, nominal SN30000 50, M14 25, M13 10 µM
[25] = plasma, 1 h on ice, black vial, nominal SN30000 0.5, M14 0.25, M13 0.1 µM
[26] = plasma, 1 h on ice, black vial, nominal SN30000 5, M14 2.5, M13 1 µM
[27] = plasma, 1 h on ice, black vial, nominal SN30000 50, M14 25, M13 10 µM
[28] = plasma, 1 h on ice, clear vial, nominal SN30000 0.5, M14 0.25, M13 0.1 µM
[29] = plasma, 1 h on ice, clear vial, nominal SN30000 5, M14 2.5, M13 1 µM
[30] = plasma, 1 h on ice, clear vial, nominal SN30000 50, M14 25, M13 10 µM
[31] = plasma, 1 h on ice, red vial, nominal SN30000 0.5, M14 0.25, M13 0.1 µM
[32] = plasma, 1 h on ice, red vial, nominal SN30000 5, M14 2.5, M13 1 µM
[33] = plasma, 1 h on ice, red vial, nominal SN30000 50, M14 25, M13 10 µM
[34] = plasma, 2 h on ice, black vial, nominal SN30000 0.5, M14 0.25, M13 0.1 µM
[35] = plasma, 2 h on ice, black vial, nominal SN30000 5, M14 2.5, M13 1 µM
[36] = plasma, 2 h on ice, black vial, nominal SN30000 50, M14 25, M13 10 µM
[37] = plasma, 2 h on ice, clear vial, nominal SN30000 0.5, M14 0.25, M13 0.1 µM
[38] = plasma, 2 h on ice, clear vial, nominal SN30000 5, M14 2.5, M13 1 µM
[39] = plasma, 2 h on ice, clear vial, nominal SN30000 50, M14 25, M13 10 µM
[40] = plasma, 2 h on ice, red vial, nominal SN30000 0.5, M14 0.25, M13 0.1 µM
[41] = plasma, 2 h on ice, red vial, nominal SN30000 5, M14 2.5, M13 1 µM
[42] = plasma, 2 h on ice, red vial, nominal SN30000 50, M14 25, M13 10 µM
[43] = plasma, three freeze-thaw cycles, nominal SN30000 0.5, M14 0.25, M13 0.1 µM
[44] = plasma, three freeze-thaw cycles, nominal SN30000 5, M14 2.5, M13 1 µM
[45] = plasma, three freeze-thaw cycles, nominal SN30000 50, M14 25, M13 10 µM

Compound: [O-][n+]1nc(CCCN2CCOCC2)nc2cc3c(cc21)CCC3 [M14]
- Bias [1, 4]: 3.86%
- Measured conc [1, 4]: 0.26 µM
- Bias [1, 5]: 5.73%
- Measured conc [1, 5]: 2.64 µM
- Bias [1, 6]: 5.22%
- Measured conc [1, 6]: 26.30 µM
- Bias [1, 7]: 1.76%
- Measured conc [1, 7]: 0.25 µM
- Bias [1, 8]: 4.04%
- Measured conc [1, 8]: 2.35 µM
- Bias [1, 9]: 5.13%
- Measured conc [1, 9]: 23.54 µM
- Bias [1, 10]: 5.21%
- Measured conc [1, 10]: 0.26 µM
- Bias [1, 11]: 1.78%
- Measured conc [1, 11]: 2.54 µM
- Bias [1, 12]: 3.05%
- Measured conc [1, 12]: 25.76 µM
- Bias [1, 13]: 8.20%
- Measured conc [1, 13]: 0.27 µM
- Bias [1, 14]: 9.32%
- Measured conc [1, 14]: 2.73 µM
- Bias [1, 15]: 0.75%
- Measured conc [1, 15]: 25.19 µM
- Bias [1, 16]: -4.84%
- Measured conc [1, 16]: 0.24 µM
- Bias [1, 17]: -5.62%
- Measured conc [1, 17]: 2.36 µM
- Bias [1, 18]: 5.39%
- Measured conc [1, 18]: 26.35 µM
- Central compartment volume V1 ([2]; 1-Oxide and Nor-oxide values fixed): 2.2 L/kg
- Temperature effect (N) on V1 ([2]; (1+ΔT)^-N): 0.48
- Approximate % suppression per °C of CL ([2]; NIH-III, mouse, in vivo): ~82%
- Approximate % suppression per °C of V1 ([2]; NIH-III, mouse, in vivo): ~28%
- Intercompartmental clearance Clic ([2]; NIH-III, mouse, in vivo): 77.3 mL/min/kg
- Peripheral compartment volume V2 ([2]; NIH-III, mouse, in vivo): 3.51 L/kg
- clearance ([2]; NIH-III, mouse, in vivo, model clearance of the compound, read-out: CL (converted)): 1020 mL/min/kg
- Absorption rate constant Ka ([2]; i.p. dosing compartment, SN30000 value fixed): 4.43
- AUC (in vivo; 1.86 mg/kg): 0.02 µM·h
- Cmax (in vivo; 1.86 mg/kg): 0.053 µM
- half-life (in vivo; 1.86 mg/kg): 29.5 min
- AUC (in vivo; 18.6 mg/kg): 0.38 µM·h
- Cmax (in vivo; 18.6 mg/kg): 1.11 µM
- half-life (in vivo; 18.6 mg/kg): 32.5 min
- AUC (in vivo; 78.3 mg/kg): 7.52 µM·h
- Cmax (in vivo; 78.3 mg/kg): 13.3 µM
- half-life (in vivo; 78.3 mg/kg): 20.1 min
- AUC (in vivo; 92.8 mg/kg): 10.8 µM·h
- Cmax (in vivo; 92.8 mg/kg): 16.8 µM
- half-life (in vivo; 92.8 mg/kg): 22.9 min
- AUC (in vivo; 186 mg/kg): 24.6 µM·h
- Cmax (in vivo; 186 mg/kg): 23 µM
- half-life (in vivo; 186 mg/kg): 58.1 min
- Bias [3, 19]: -3.45%
- Measured conc [3, 19]: 0.24 µM
- Bias [3, 20]: -1.00%
- Measured conc [3, 20]: 2.48 µM
- Bias [3, 21]: 5.16%
- Measured conc [3, 21]: 26.29 µM
- Bias [3, 22]: 1.83%
- Measured conc [3, 22]: 0.23 µM
- Bias [3, 23]: 1.63%
- Measured conc [3, 23]: 2.42 µM
- Bias [3, 24]: 1.59%
- Measured conc [3, 24]: 26.65 µM
- Bias [3, 25]: -6.07%
- Measured conc [3, 25]: 0.23 µM
- Bias [3, 26]: -9.84%
- Measured conc [3, 26]: 2.25 µM
- Bias [3, 27]: 3.20%
- Measured conc [3, 27]: 25.80 µM
- Bias [3, 28]: -6.07%
- Measured conc [3, 28]: 0.23 µM
- Bias [3, 29]: -2.06%
- Measured conc [3, 29]: 2.45 µM
- Bias [3, 30]: -2.50%
- Measured conc [3, 30]: 24.37 µM
- Bias [3, 31]: -3.25%
- Measured conc [3, 31]: 0.24 µM
- Bias [3, 32]: -4.29%
- Measured conc [3, 32]: 2.39 µM
- Bias [3, 33]: 0.26%
- Measured conc [3, 33]: 25.07 µM
- Bias [3, 34]: -2.23%
- Measured conc [3, 34]: 0.24 µM
- Bias [3, 35]: -2.62%
- Measured conc [3, 35]: 2.43 µM
- Bias [3, 36]: -2.33%
- Measured conc [3, 36]: 24.42 µM
- Bias [3, 37]: -5.90%
- Measured conc [3, 37]: 0.24 µM
- Bias [3, 38]: 0.51%
- Measured conc [3, 38]: 2.51 µM
- Bias [3, 39]: -2.43%
- Measured conc [3, 39]: 24.39 µM
- Bias [3, 40]: -3.27%
- Measured conc [3, 40]: 0.24 µM
- Bias [3, 41]: -0.72%
- Measured conc [3, 41]: 2.48 µM
- Bias [3, 42]: 0.70%
- Measured conc [3, 42]: 25.17 µM
- Bias [3, 43]: -4.07%
- Measured conc [3, 43]: 0.24 µM
- Bias [3, 44]: -3.19%
- Measured conc [3, 44]: 2.42 µM
- Bias [3, 45]: 3.92%
- Measured conc [3, 45]: 25.98 µM
- Initial rate of temperature loss (rectum) (NIH-III mice): 0.6 °C/min
